According to BindingDB's records for patent US20250051323 (Richter Gedeon, 2025):

molecular target: T1, GABA-A receptor; alpha-5/beta-3/gamma-2 (Homo sapiens, UniProt P18507+P28472+P31644); experiment: Binding Assay
T1 sequence (P31644 whole entry): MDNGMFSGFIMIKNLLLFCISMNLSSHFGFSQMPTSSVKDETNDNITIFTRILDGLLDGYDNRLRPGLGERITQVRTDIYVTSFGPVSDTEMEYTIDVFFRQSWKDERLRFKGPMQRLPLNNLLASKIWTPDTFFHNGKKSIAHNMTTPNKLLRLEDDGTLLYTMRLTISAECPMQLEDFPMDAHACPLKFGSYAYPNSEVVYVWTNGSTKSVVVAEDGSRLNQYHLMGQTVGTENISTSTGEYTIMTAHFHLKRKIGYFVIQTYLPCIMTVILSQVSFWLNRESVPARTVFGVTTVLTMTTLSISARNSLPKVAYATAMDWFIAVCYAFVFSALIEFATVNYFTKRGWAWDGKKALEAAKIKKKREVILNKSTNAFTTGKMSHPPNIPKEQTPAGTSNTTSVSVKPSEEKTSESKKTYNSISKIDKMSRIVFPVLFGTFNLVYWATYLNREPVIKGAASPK
T1 sequence (P18507 whole entry): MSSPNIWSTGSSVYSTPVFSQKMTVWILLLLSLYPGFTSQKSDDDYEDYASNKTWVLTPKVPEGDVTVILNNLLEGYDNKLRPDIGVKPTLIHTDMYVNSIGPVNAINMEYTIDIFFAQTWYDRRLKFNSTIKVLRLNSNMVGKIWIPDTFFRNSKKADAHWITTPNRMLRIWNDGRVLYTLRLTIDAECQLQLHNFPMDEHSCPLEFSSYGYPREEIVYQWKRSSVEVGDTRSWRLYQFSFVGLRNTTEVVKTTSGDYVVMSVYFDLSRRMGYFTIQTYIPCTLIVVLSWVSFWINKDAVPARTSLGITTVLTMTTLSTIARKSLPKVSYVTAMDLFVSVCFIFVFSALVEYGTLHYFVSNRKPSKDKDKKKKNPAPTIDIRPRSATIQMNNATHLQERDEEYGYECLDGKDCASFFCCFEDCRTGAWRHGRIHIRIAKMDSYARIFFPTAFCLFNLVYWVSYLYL
T1 sequence (P28472 whole entry): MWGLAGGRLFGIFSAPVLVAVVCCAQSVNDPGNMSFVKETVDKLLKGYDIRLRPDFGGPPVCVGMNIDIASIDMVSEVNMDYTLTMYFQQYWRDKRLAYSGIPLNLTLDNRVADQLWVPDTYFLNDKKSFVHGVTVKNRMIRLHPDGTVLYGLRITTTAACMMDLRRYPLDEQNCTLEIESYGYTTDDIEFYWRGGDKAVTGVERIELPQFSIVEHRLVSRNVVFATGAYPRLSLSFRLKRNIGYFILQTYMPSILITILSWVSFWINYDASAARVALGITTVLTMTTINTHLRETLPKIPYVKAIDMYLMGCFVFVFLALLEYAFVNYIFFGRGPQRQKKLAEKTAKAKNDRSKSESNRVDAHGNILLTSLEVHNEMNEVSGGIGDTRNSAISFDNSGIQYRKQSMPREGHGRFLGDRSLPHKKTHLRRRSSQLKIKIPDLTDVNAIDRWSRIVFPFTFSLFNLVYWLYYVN
Description: Receptor binding assays were performed in 96-well format in deep-well plates. For each 96-well plate one ampule of membrane homogenate was thawed and diluted in binding buffer (50 mM Tris pH=7.4, 100 mM KCl) and 200 μL was dispensed into each well. Radioligand [3H]Ro151788 (Perkin Elmer: NET757250UC) was prepared in binding buffer and added to each well in 50 μL volume to give final concentration of 0.5 nM. Test compounds in suitable concentration(s) were added in additional 50 μL. The final assay volume was 300 μL. Incubation was carried out for 60 minutes at 4° C. For non-specific binding 10 μM unlabeled diazepam was used. After incubation samples were filtered over UniFilter GF/B™ using Filtermate Harvester (Perkin Elmer) and washed with 5×1 mL binding buffer. The plate was dried at 40° C. for an hour and 40 μL Microscint (Perkin Elmer) scintillation cocktail was added to each well. The plate was read in Microbeta (Perkin Elmer).

Ki | Structure (SMILES)
28 nM | Cc1ccc(-n2nnc(C)c2COc2cc3c(cn2)CN(C2(C(C)C)COC2)CC3)cn1 [US20250051323, Example 42]
12.7 nM | Cc1onc(-c2ccc(C(F)(F)F)nc2)c1COc1cc2c(nn1)CN(C1CCOC1)CC2 (stereo not drawn) [US20250051323, Example 18]
53.5 nM | Cc1nnn(-c2ccc(C(F)(F)F)nc2)c1COc1cc2c(cn1)CN(CC1CCS(=O)(=O)C1)CC2 (stereo not drawn) [US20250051323, Example 36]
28.5 nM | COc1ccc(-n2nnc(C)c2COc2cc3c(cn2)CN(C2CCOCC2)CC3)cn1 [US20250051323, Example 40]
61.5 nM | Cc1ccc(-n2nnc(C)c2COc2cc3c(cn2)CN(CC(C)C)CC3)cn1 [US20250051323, Example 41]
4.5 nM | Cc1ccc(-c2noc(C)c2COc2cc3c(cn2)CN(C2CCC2)CC3)cn1 [US20250051323, Example 4]
37.9 nM | Cc1nnn(-c2ccc(C(F)(F)F)nc2)c1COc1cc2c(cn1)CN(c1cccnc1)CC2 [US20250051323, Example 37]
19 nM | CCC1(N2CCc3cc(OCc4c(C)nnn4-c4ccc(C)nc4)ncc3C2)COC1 [US20250051323, Example 43]
